The values that follow come from patent US20260314597A1, “A NOVEL APPROACH TO INTERFERE IN THE PHENYLPROPANOID BIOSYNTHETIC PATHWAY TO REDUCE PINK-RIB DISORDER IN FRESH LETTUCE” (University of Florida Research Foundation, Inc., priority 2022, published 2026).

Assay [1] relates to iceberg and Romaine lettuce midribs. The assay is described as follows: Visual (subjective) pink rib development in wounded, immersed lettuce midribs stored at 5° C. The note with it: for duration of inhibition of pink rib development: 30 s immersion, 5° C.; for effect on pink rib discoloration: iceberg and Romaine. Type of assay: in vivo. Here is the method: Six preliminary experiments were performed to determine treatment conditions for the three final experiments reported here. It was determined that the method developed by Cantwell (2016) induced pink rib discoloration in lettuce midribs during storage at 5° C. via mimicking mechanical damage and was, therefore, selected for use in all preliminary and final tests. […] Concentrations evaluated were: L-cysteine (0.4, 0.8, 2.1, 4.1, 8.3 mM), naringenin (0.2, 0.4, 0.9, 1.8, 3.7 mM), serotonin (2.8, 5.7 mM), and melatonin (0.2, 0.4, 1.1, 2.2, 4.3 mM) (data not presented). […] Therefore, this study employed the one or two concentrations for each compound with the greatest potential efficacy in three independent tests, Test 1 to 3 (Table 1).
For Test 1, the evaluations for pink rib development, protein quantification, and enzyme activity were conducted with Romaine and iceberg lettuce heads (36 heads per type; cultivars unknown) purchased (February 2020) upon arrival at a local grocery store in Gainesville, FL, and immediately transported to the Postharvest Horticulture Laboratory at the University of Florida in Gainesville, FL. For Test 2, metabolite extraction and detection were conducted with commercially grown, harvested, and cooled Romaine (‘Tall Guzmaine’) and iceberg (‘Chosen’) lettuce (December 2020) grown in Belle Glade, FL. For Test 3, untargeted metabolomics was performed using commercially grown, harvested, and cooled Romaine (‘Manatee’) lettuce grown in Belle Glade, FL (April 2021). To keep the lettuce head samples cool while preventing freeze damage during transport, a 3- to 6-inch layer of crushed ice was placed on the bottom of each 114-L cooler. A piece of waxed, corrugated fiberboard was placed on top of the ice prior to packing with the lettuce samples for transport the same day to the Postharvest Horticulture Laboratory in Gainesville (approximately 4 h distant).
(§1) In all tests, experimental setup began immediately upon arrival to the laboratory. 90 outer leaves were randomly selected from 18 to 22 lettuce heads that met commercial and damage-free quality standards. A midrib segment (12.5 cm) was excised from the center of each leaf and excess leaf blade tissue was trimmed parallel to the midrib. This procedure was adapted from the wounding procedure of Cantwell (2016). Each midrib was then partially sliced transversally at 1.3-cm increments along the midrib. Midribs (n=15) were immediately immersed for 30 s in one of five treatment solutions: deionized water (wounded control), L-cysteine (4.1 mM), naringenin (1.8 mM) with 20% dimethyl sulfoxide (DMSO), serotonin (2.8 or 5.7 mM) or melatonin (4.3 mM) with 0.50% DMSO. Immediately following immersion, the midribs for each treatment were patted dry using paper towels and placed (n=5) in a breathable, high-density polyethylene bag (n=3) (Narrow Profile Produce Bags [14×18 inches] Model No. S-19156, Uline®, Pleasant Prairie, WI). Unwounded control midribs were stored in the same manner. To allow for direct comparison, each cut site on each midrib was assigned an initial discoloration value on day 1 based on the coloration of the rib. Samples were stored at 5° C. with 95-98% relative humidity (RH) for 5 d, simulating commercial storage.
All chemicals were of laboratory or reagent grade from Alfa Aesar (Thermo Fisher Scientific, Ward Hill, MA, USA) or Phyto Technology Laboratories (Shawnee Mission, KS, USA). L-cysteine (4.1 mM) solution was prepared by dissolving […] in 100 ml deionized water. Naringenin (1.8 mM) solution was prepared by dissolving […] in 20 mL of DMSO and diluting to a 100 mL volume with deionized water. A stock solution of serotonin (5.7 mM) was prepared by dissolving 100 mg of serotonin in 100 ml of deionized water; a second solution of serotonin (2.8 mM) was prepared by diluting the stock solution two-fold with deionized water. […]

Assay [2] relates to chlorogenic acid formation in lettuce midribs. Description: Chlorogenic acid concentration in treated wounded midribs (HPLC). As to conditions: 5 d at 5° C.; for chlorogenic acid concentration: L-cysteine 4.1 mM or melatonin 4.3 mM; for effect on chlorogenic acid concentration: iceberg and Romaine, vs wounded. Type of assay: in vivo, lettuce (iceberg, Romaine).
Description: as §1
Unwounded, wounded, and compound-treated wounded midrib samples were collected for untargeted metabolite analysis to identify global metabolite changes in response to melatonin application and targeted metabolite analysis to quantify chlorogenic acid a major caffeoyl compound in lettuce. For both targeted and untargeted metabolite analyses, fresh samples (500-800 mg) of the midribs from each treatment (n=3) were weighed, then immediately frozen in liquid nitrogen and stored at −80° C. for subsequent metabolite extraction. Frozen samples were extracted with a 50% methanol extraction solution containing a 1:1 (v:v) of methanol with deionized water. Samples were completely submerged in a 1:1.5 (w:v) of the sample weight (mg) to extraction solution volume (μL), respectively, and incubated at 65° C. for 90 min and then centrifuged at 9660×g for 10 min (MC-12 High Speed Micro Centrifuge, Benchmark Scientific, Edison, NJ). The supernatant was transferred to a new tube and filtered with a 0.45 μm filter (Choice, Thermo Scientific, Wilmington, DE). An aliquot of 400 μL was vacuum-dried.
For chlorogenic acid quantification, vacuum-dried samples were resuspended with 50 μL of 50% methanol. A 10 μL volume of extract was analyzed on an UltiMate 3000 High Performance Liquid Chromatography (HPLC) system (Thermo Fisher Scientific, Ward Hill, MA, USA) equipped with a diode array detector (DAD) in the UV-VIS region 200 to 500 nm. The compounds were separated on an Acclaim™ RSLC PA2 column (150 mm×2.1 mm; 2.2 μm) (Thermo Fisher Scientific, Ward Hill, MA, USA) coupled with a C18 guard column (10 mm×3 mm; 5 μm). The mobile phase consisted of solvent A (0.1% formic acid (v/v) in water) and solvent B (100% acetonitrile), and the gradient as follows: 5% to 20% increase of solvent B at 0.3 to 0.4 min, 20% to 25% increase solvent B at 5.25 to 12.5 min, 25% to 95% increase solvent B at 12.5 to 16.5 min, and 95% solvent B at 16.5 to 20 min. The flow rate was 0.4 mL min^−1 and the column temperature was 40° C. The level of chlorogenic acid was quantified based on the peak area at 328 nm and the standard curve using authentic standard (Sigma Aldrich; St. Louis, MO, USA).
The imaging data (a* value), enzyme activity (PAL and PPO), and metabolite (chlorogenic acid) results were expressed as mean±standard error and analyzed by lettuce type (iceberg or Romaine). For imaging data, an unpaired t-test was used to identify differences within a treatment throughout storage and among treatment groups at each time point. Treatment groups were defined as wounded, unwounded, L-cysteine, and melatonin. […]

Entries after “also recorded” stand apart in the source; their conditions may differ.

With `COc1ccc2[nH]cc(CCNC(C)=O)c2c1` [melatonin], the “duration of inhibition of pink rib development” value came out at 3 days in assay [1] (melatonin 4.3 mM, Romaine, vs wounded control) and 5 days in assay [1] (melatonin 4.3 mM, iceberg, vs wounded control). Also, in assay [1] (melatonin 4.3 mM, Romaine, over 5 d at 5° C. (P=0.0058)), the “pink rib discoloration (visual)” value is on record as “slight (2=slight)”. Besides, the “effect on pink rib discoloration” value in assay [1] (melatonin 4.3 mM, 5 d at 5° C., vs controls) is “equal to or similar to unwounded controls; also recorded: dramatically less pink rib discoloration”. The chlorogenic acid concentration in assay [2] (Romaine) turned out to be 3.11 µg/g; in assay [2] (iceberg), 1.55 µg/g. Further, the “effect on chlorogenic acid concentration” value in assay [2] is “neither L-cysteine nor melatonin significantly reduced chlorogenic acid concentration; also recorded: neither enzyme activity (PAL or PPO) nor chlorogenic acid concentration were impacted; also recorded: did not significantly affect PAL or PPO enzyme activities nor formation of chlorogenic acid”.

Consider `N[C@@H](CS)C(=O)O` [L-cysteine], for which the “effect on pink rib discoloration” value in assay [1] (L-cysteine 4.1 mM, up to 5 d at 5° C., vs wounded control) is given as “negligible effect on reducing pink rib; also recorded: equal or greater discoloration; also recorded: significantly higher discoloration than the control after 5 d; also recorded: ineffective in reducing pink rib; also recorded: neither PPO activity nor pink rib expression were reduced”. In addition, the values for the chlorogenic acid concentration in assay [2] (Romaine) and in assay [2] (iceberg) were 3.11 µg/g and 1.55 µg/g, respectively. Further, the “effect on chlorogenic acid concentration” value in assay [2] was “neither L-cysteine nor melatonin significantly reduced chlorogenic acid concentration”.
